This test has as its system Penicillium funiculosum MRJ-16 mutant strain. It counts as cell-based. As to conditions: 120 hours of fermentation. On the procedure:
Fermentation process was carried out using ammonium sulphate (3-5 g/L), KH2PO4 (4-6 g/L), MgSO4.7H2O (0.5-1 g/L), CaCO3 (2.5-5 g/L), Glycerol (2-3 g/L), Corn steep solids (25-35 g/L), cellulose (25-40 g/L) and Tween-80 (1-2 ml/L) dissolved in distilled water. Novel Penicillium funiculosum MRJ-16 mutant strain developed in the laboratory was used for the study. […]
Cultivation of Penicillium funiculosum MRJ-16 mutant strain was conducted under conditions and media composition identical to example no. 1 along with inhibitors at different concentration.

The structures appear in SMILES notation. Like-named read-outs stand apart in the source and are kept apart here.

Regarding `O=Cc1ccc(CO)o1` [HMF, hydroxyl methyl furfural], the “Average FPA/ml” value (inhibitor 0.25% in media) is recorded as 6.07 FPA/ml. On to `CC(=O)O` [Acetic acid, acetic acid], for which the “Average FPA/ml” value (inhibitor 0.5% in media) was 6.49 FPA/ml.

Turning to `O=Cc1ccco1` [Furfural, furfural], the “Average FPA/ml” value (inhibitor 0.25% in media) was 6.83 FPA/ml.

For the origin of these results see patent publication US11242549B2, “Bio-refinery waste utilization for enzyme production using novel penicillium funiculosum MRJ-16 fungal strain” (INDIAN OIL CORPORATION LIMITED, priority 2019, dated 2022).
